From ChEMBL document CHEMBL1151820, “Antagonists of the P2X(7) receptor. From lead identification to drug development” (J Med Chem, 2009)
Each block holds one molecule with its values, some of them ahead of it.

Tests used:
[1] = molecular target: T1, P2X purinoceptor 7 (Homo sapiens) (UniProt Q99572); conditions: HEK293, at 3 µM
T1 sequence (whole entry): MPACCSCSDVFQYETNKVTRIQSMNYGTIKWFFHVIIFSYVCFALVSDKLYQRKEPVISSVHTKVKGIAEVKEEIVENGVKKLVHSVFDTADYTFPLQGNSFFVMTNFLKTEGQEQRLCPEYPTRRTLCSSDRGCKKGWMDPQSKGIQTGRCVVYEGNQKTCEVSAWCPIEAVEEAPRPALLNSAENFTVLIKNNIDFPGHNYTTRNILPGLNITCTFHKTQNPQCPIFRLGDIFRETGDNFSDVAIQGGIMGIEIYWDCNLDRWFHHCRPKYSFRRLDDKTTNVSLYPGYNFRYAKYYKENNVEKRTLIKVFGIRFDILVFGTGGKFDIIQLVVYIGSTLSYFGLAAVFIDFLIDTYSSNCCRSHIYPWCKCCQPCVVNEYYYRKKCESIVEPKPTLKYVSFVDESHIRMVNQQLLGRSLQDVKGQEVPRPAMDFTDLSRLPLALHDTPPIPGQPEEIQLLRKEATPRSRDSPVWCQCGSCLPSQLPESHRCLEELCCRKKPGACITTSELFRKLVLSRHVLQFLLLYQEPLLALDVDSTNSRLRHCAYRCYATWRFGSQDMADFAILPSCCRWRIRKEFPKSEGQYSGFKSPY

P2X purinoceptor 7 [2] = molecular target: T2, P2X purinoceptor 7 (Homo sapiens, UniProt Q99572); assay: Antagonist activity at P2X7 receptor in human THP1 cells assessed as inhibition of BzATP-induced ethidium uptake; type: functional, cell-based, THP-1; conditions: for pIC50: thp-1
T2 sequence (Q99572 whole entry): T1 sequence (whole entry)

P2X purinoceptor 7 [3] = molecular target: T2, P2X purinoceptor 7; assay: Antagonist activity at human P2X7 receptor expressed in human U373 cells assessed as inhibition of BzATP-induced Yo-Pro uptake; type: functional, cell-based, U-373MG ATCC

Compound: CC(C)(C)OC(=O)N1CCN(C(=O)[C@H](Cc2ccc(OS(=O)(=O)c3cccc4cccnc34)cc2)NC(=O)c2ccccc2)CC1
inhibition [1]: 13%

Compound: O=C(NCC12CC3CC(CC(C3)C1)C2)c1cc(N2CCNCC2)ncc1Cl
pIC50 (P2X purinoceptor 7 [2]): > 5

Compound: c1ccc(C2=N[C@@H](c3ccccc3)[C@@H](c3ccccc3)N2)cc1
IC50 (P2X purinoceptor 7 [3]): 3980 nM

Compound: Fc1ccccc1CC1=N[C@H](c2ccccc2)[C@H](c2ccccc2)N1
IC50 (P2X purinoceptor 7 [3]): 631 nM

Compound: Cc1cccc([C@H]2NC(NCc3cccc(F)c3)=N[C@H]2c2cccc(C)c2)c1
IC50 (P2X purinoceptor 7 [3]): 126 nM

Compound: O=C(N[C@@H](Cc1ccc(OS(=O)(=O)c2ccccc2)cc1)C(=O)N1CCN(C(=O)OCc2ccccc2)CC1)OCc1ccccc1
inhibition [1]: 48%

Compound: O=C(N[C@@H](Cc1ccc(OS(=O)(=O)c2ccccc2)cc1)C(=O)N1CCN(C(=O)c2ccccc2)CC1)OCc1ccccc1
inhibition [1]: 78%

Compound: Fc1cccc(CNC2=N[C@@H](c3ccccc3Cl)[C@@H](c3ccccc3Cl)N2)c1
IC50 (P2X purinoceptor 7 [3]): 398 nM

Compound: c1ccc(CCCC2=N[C@H](c3ccccc3)[C@H](c3ccccc3)N2)cc1
IC50 (P2X purinoceptor 7 [3]): 501 nM

Compound: C[C@@]1(c2cccc(F)c2)N=C(NCc2cccc(F)c2)N[C@@H]1c1cccc(F)c1
IC50 (P2X purinoceptor 7 [3]): 39.8 nM

Compound: CC(C)(C)OC(=O)N1CCN(C(=O)[C@H](Cc2ccc(OS(=O)(=O)c3cccc4cccnc34)cc2)NS(=O)(=O)c2cccc3cnccc23)CC1
inhibition [1]: 37%

Compound: Cc1ccccc1CC1=N[C@H](c2ccccc2)[C@H](c2ccccc2)N1
IC50 (P2X purinoceptor 7 [3]): 316 nM

Compound: c1ccc(CCC2=N[C@H](c3ccccc3)[C@H](c3ccccc3)N2)cc1
IC50 (P2X purinoceptor 7 [3]): 79.4 nM

Compound: Fc1cccc(CC2=N[C@H](c3ccccc3)[C@H](c3ccccc3)N2)c1
IC50 (P2X purinoceptor 7 [3]): 79.4 nM

Compound: CC(C)(C)OC(=O)N1CCN(C(=O)[C@H](Cc2ccc(OS(=O)(=O)c3cccc4cccnc34)cc2)NS(=O)(=O)c2cccc3cccnc23)CC1
inhibition [1]: 61%

Compound: CC(C)(CC1=N[C@H](c2ccccc2)[C@H](c2ccccc2)N1)c1ccccc1
IC50 (P2X purinoceptor 7 [3]): 10 nM

Next, values leading:

IC50 (P2X purinoceptor 7 [2]): > 10000 nM
Compound: O=C(NC12CC3CC(CC(C3)C1)C2)c1ccccc1Cl

inhibition [1]: 59%
Compound: CC(C)(C)OC(=O)N1CCN(C(=O)[C@H](Cc2ccc(OS(=O)(=O)c3ccccc3)cc2)NC(=O)OCc2ccccc2)CC1

IC50 (P2X purinoceptor 7 [2]): 398 nM
Compound: O=C(NCC1(O)CCCCC1)c1cc(-n2ncc(=O)[nH]c2=O)ccc1Cl

pIC50 (P2X purinoceptor 7 [2]): > 5
Compound: O=C(NCC12CC3CC(CC(C3)C1)C2)c1cc(OCCCNCCCO)ccc1Cl

IC50 (P2X purinoceptor 7 [2]): 794 nM
Compound: CCCCC(CC)CNC(=O)c1cc(-n2ncc(=O)[nH]c2=O)ccc1Cl (centres undefined)

IC50 (P2X purinoceptor 7 [2]): 79.4 nM
Compound: O=C(Cc1ccc(C(F)(F)F)c(F)c1)Nc1cccc2c1CCN(C(=O)[C@H]1CCCN1)C2

inhibition [1]: 62%
Compound: COc1ccc(S(=O)(=O)Oc2ccc(C[C@H](NC(=O)OCc3ccccc3)C(=O)N3CCN(C(=O)OC(C)(C)C)CC3)cc2)cc1

IC50 (P2X purinoceptor 7 [2]): 0.316 nM
Compound: O=C(Cc1cccc(C(F)(F)F)c1F)Nc1c(Cl)ccc2c(=O)n(C3CC3)ccc12

pIC50 (P2X purinoceptor 7 [2]): >= 5
Compound: C[C@@H]1CN(CC(=O)Nc2cccc3ncccc23)CCN1S(=O)(=O)c1ccc(S(C)(=O)=O)cc1

pIC50 (P2X purinoceptor 7 [2]): > 5
Compound: O=C(NCC12CC3CC(CC(C3)C1)C2)c1ccnc(N2CCNCC2)c1Cl

IC50 (P2X purinoceptor 7 [2]): 0.0794 nM
Compound: C[C@@H](C(N)=O)n1ccc2c(NC(=O)CC34CC5CC(CC(C5)C3)C4)c(Cl)ccc2c1=O

inhibition [1]: < 10%
Compound: CC(C)(C)OC(=O)N1CCN(C(=O)[C@H](Cc2ccc(OC(=O)OCc3ccccc3)cc2)NC(=O)OCc2ccccc2)CC1

IC50 (P2X purinoceptor 7 [2]): 316 nM
Compound: Cc1ccc2c(NC(=O)C[C@H](C)c3ccccc3)c(Cl)ccc2n1

inhibition [1]: < 10%
Compound: CCC(=O)N1CCN(C(=O)[C@H](Cc2ccc(OS(=O)(=O)c3ccccc3)cc2)NC(=O)OCc2ccccc2)CC1

inhibition [1]: < 10%
Compound: CC(C)(C)OC(=O)N1CCN(C(=O)[C@H](Cc2ccc(O)cc2)NC(=O)OCc2ccccc2)CC1

IC50 (P2X purinoceptor 7 [2]): 25.1 nM
Compound: O=C(CC1CCCCC1)Nc1c(Cl)ccc2nc(NCCCO)ccc12

IC50 (P2X purinoceptor 7 [2]): 25.1 nM
Compound: CCS(=O)(=O)N1CCc2c(ccc(C)c2NC(=O)Cc2ccc(C(F)(F)F)c(F)c2)C1

inhibition [1]: < 10%
Compound: O=C(N[C@@H](Cc1ccc(OS(=O)(=O)c2ccccc2)cc1)C(=O)N1CCN(S(=O)(=O)c2ccccc2)CC1)OCc1ccccc1

IC50 (P2X purinoceptor 7 [2]): 20 nM
Compound: O=C(CC12CC3CC(CC(C3)C1)C2)Nc1c(Cl)ccc2nc(CN3CCN(CCO)CC3)ccc12

IC50 (P2X purinoceptor 7 [2]): 501 nM
Compound: CS(=O)(=O)NC(=O)NCCCc1ccc2c(C(=O)NCC3CCCCC3)c(Cl)ccc2n1

pIC50 (P2X purinoceptor 7 [2]): > 5
Compound: O=C(NCC12CC3CC(CC(C3)C1)C2)c1ccnc(NCC2CCNCC2)c1Cl

IC50 (P2X purinoceptor 7 [2]): 50.1 nM
Compound: O=C(NCC12CC3CC(CC(C3)C1)C2)c1cc(-n2ncc(=O)[nH]c2=O)ccc1Cl

pIC50 (P2X purinoceptor 7 [2]): > 5
Compound: O=C(NCC12CC3CC(CC(C3)C1)C2)c1cc(CCCNCCc2cnc[nH]2)ccc1Cl
